Data from patent US7514408B1, “β-secretase enzyme compositions and methods” (Elan Pharmaceuticals, Inc., priority 1999, dated 2009).
Numbered stars: 1 amine (or outer) side, 2 acyl side, 3 side chain; on linkers, the order of the positions; unused ones are H or OH. Square brackets hold non-standard residues; d marks the D form. Peptide text beside a SMILES is read from it. Sta = CC(C)C[C@H](N)[C@@H](O)CC(=O)O; X1 = CC(C)CC(N[*:1])C(O)C(=O)[*:2]

Target: β-secretase (Homo sapiens, UniProt P56817)
Test: MBP C125 assay of peptide inhibitors
Type: biochemical
Protocol: The substrates for these studies were synthesized using solid support sequential synthesis as described in Example 7. Assays of the inhibitory activity were performed in the MBP C125 assays described in Example 4 and IC50 values were generated for the heptameric inhibitors are reported in Table 9. Preferred inhibitors of the invention are those compounds in Group III, particularly preferred inhibitors are in Group II and the most preferred are the inhibitors of Group I.
MBP-C125 Assay: Two recombinantly-expressed proteins (FIG. 19 and FIG. 20) were used as substrates for β-secretase. The preferred substrate (FIG. 19) was expressed in E. coli as a fusion protein of the last 125 amino acids of APP fused to the carboxy-terminal end of maltose-binding protein (MBP), using commercially available vectors from New England Biolabs. […]
Recombinant proteins were generated with both the wild-type APP sequence (MBP-C125 WT) at the cleavage site ( . . . Val-Lys-Met-Asp-Ala . . . ). […] This amino-terminal fragment can be recognized on Western blots with the same Ab, or, quantitatively, using an anti-MBP capture-biotinylated SW-192 reporter sandwich format, as shown in FIG. 19. […]
Microtiter 96-well plates were coated with purified anti-MBP antibody (@ 5-μg/ml), followed by blocking with human serum albumin. […] Plates were read in a Cytofluor 2350 Fluorescent Measurement System. […]

Sequence of β-secretase (P56817 46-501): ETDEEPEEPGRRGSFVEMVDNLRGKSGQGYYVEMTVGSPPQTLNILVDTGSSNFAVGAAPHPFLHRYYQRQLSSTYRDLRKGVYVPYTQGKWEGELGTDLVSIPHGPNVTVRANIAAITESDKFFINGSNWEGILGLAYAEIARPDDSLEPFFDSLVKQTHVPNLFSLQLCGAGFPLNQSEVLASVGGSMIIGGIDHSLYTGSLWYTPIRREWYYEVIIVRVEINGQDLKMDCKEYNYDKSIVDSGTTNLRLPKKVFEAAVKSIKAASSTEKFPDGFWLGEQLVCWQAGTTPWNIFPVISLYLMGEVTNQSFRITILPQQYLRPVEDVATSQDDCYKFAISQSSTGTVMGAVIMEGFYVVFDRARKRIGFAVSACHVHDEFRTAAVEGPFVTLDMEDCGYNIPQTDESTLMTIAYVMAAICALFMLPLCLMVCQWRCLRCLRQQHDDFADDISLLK

| IC50 (MBP C125 assay, heptamer peptides, read-out: IC50 Group) [µM] | inhibitor potency relative to the valine substitution alone (fold more potent than P1' valine substituted peptide) | Molecule |
| --- | --- | --- |
| 1 to 10 | – | CSCC[C@H](NC(=O)[C@@H](NC(C)=O)C(C)C)C(=O)NC(CC(C)C)C(O)C(=O)N[C@H](C(=O)N[C@@H](C)C(=O)N[C@@H](CCC(=O)O)C(=O)N[C@@H](Cc1ccccc1)C(=O)O)C(C)C (some centres unmarked) [Example 7P] (Ac-VM[X1]VAEF-OH) |
| – | about 100 times | NH2-KTEEISEVNVAEF-COOH (H-KTEEISEVN[Sta]VAEF-OH) [P10-P4′sta D→V] |
